ChEMBL document CHEMBL4673273, “Development of autotaxin inhibitors: A series of tetrazole cinnamides” (Bioorg Med Chem Lett, 2021)
pIC50: −log10 of the molar value.

What was measured:
Autotaxin [1] = biological target: T1, Autotaxin (Homo sapiens, UniProt Q13822)
Description: Inhibition of human recombinant ATX expressed in HEK293 cells assessed as inhibition of choline release using LPC (18:1) as substrate preincubated with enzyme for 20 mins followed by substrate addition and measured every 2 mins for 40 mins by resurofin-based fluorescence analysis

[2] = Metabolic stability in rat liver microsomes assessed as intrinsic clearance; assay type: ADME, Microsome; settings: read-out: CLH
[3] = Tmax in Sprague-Dawley rat at 10 mg/kg, po; assay type: ADME, organism-based; settings: in vivo
[4] = Oral bioavailability in Sprague-Dawley rat at 10 mg/kg; assay type: ADME, organism-based; settings: in vivo
[5] = Equilibrium solubility of compound at pH 6.8; assay type: physicochemical; settings: buffer
[6] = Cmax in Sprague-Dawley rat at 10 mg/kg, po; assay type: ADME, organism-based; design: route oral, dose 10 mg/kg; settings: in vivo
[7] = biological target: Voltage-gated inwardly rectifying potassium channel KCNH2 (Homo sapiens, UniProt Q12809); assay: Inhibition of human ERG expressed in CHO-K1 cells by automated Qpatch clamp assay
Sequence of Voltage-gated inwardly rectifying potassium channel KCNH2 (Q12809 whole entry): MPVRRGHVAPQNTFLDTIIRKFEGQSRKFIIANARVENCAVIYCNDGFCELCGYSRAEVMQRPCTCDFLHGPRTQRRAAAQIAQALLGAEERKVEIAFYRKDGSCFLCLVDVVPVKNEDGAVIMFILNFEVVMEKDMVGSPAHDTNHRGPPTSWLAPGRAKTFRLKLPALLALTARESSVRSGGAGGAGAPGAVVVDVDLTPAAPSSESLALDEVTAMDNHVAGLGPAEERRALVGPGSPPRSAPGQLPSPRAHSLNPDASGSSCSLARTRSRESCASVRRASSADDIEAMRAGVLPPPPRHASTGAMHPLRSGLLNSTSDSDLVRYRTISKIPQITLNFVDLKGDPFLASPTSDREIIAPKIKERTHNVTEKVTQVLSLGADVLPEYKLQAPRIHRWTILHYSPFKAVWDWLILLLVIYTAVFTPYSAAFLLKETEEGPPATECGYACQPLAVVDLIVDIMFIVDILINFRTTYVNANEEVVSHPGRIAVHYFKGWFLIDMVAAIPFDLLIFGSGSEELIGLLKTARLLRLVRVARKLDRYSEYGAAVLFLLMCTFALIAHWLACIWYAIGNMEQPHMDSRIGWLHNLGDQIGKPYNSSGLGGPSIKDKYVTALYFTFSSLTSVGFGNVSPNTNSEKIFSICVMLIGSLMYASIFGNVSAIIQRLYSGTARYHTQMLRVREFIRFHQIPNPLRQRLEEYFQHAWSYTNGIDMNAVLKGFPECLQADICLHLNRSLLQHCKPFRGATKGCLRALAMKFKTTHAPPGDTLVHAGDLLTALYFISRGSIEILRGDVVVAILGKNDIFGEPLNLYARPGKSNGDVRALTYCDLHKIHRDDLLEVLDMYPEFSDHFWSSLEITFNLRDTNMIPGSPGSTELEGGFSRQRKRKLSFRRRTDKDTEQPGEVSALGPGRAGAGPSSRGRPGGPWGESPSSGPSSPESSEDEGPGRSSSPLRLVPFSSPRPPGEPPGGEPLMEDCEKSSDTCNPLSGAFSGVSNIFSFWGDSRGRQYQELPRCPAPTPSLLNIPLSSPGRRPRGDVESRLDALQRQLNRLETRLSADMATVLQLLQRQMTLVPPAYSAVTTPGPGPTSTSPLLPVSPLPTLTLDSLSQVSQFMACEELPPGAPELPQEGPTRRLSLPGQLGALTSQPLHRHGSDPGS

[8] = Clearance in Sprague-Dawley rat at 1 mg/kg, iv; assay type: ADME, organism-based; settings: in vivo
[9] = AUC (0 to infinity) in Sprague-Dawley rat at 10 mg/kg, po; assay type: ADME, organism-based; design: route oral, time infinity, dose 10 mg/kg; settings: in vivo
[10] = Half life in Sprague-Dawley rat at 1 mg/kg, iv; assay type: ADME, organism-based; settings: in vivo
[11] = Volume of distribution at steady state in Sprague-Dawley rat at 1 mg/kg, iv; assay type: ADME, organism-based; settings: in vivo, read-out: Vdss
[12] = Metabolic stability in human liver microsomes assessed as intrinsic clearance; assay type: ADME, Microsome; settings: read-out: CLH
Autotaxin [13] = biological target: T1, Autotaxin; assay: Inhibition of ATX in human serum assessed as reduction in LPA (18:1) level by LC-MS analysis; assay type: cell-free
Rattus norvegicus = assay: (§1) In vivo inhibition of ATX in po dosed Sprague-Dawley rat assessed as inhibition of LPA formation in serum by LC-MS analysis; assay type: functional, organism-based
[14] = as §1; assay type: functional, organism-based
[15] = Passive Permeability of the compound across artificial membrane assessed as fraction absorbed by PAMPA assay

SMILES	pIC50 (Autotaxin [1])	microsomal CLint [2] [µL/min/mg]	pIC50 [7]	other results
COc1ccc(CN2CCN(C(=O)/C=C/c3ccc(Cl)cc3Cn3nnc(C)n3)CC2)cc1	8.04	520		
Cc1cc(CN2CCN(C(=O)/C=C/c3ccc(Cl)cc3Cn3nnc(C)n3)CC2=O)on1	7.59	87		
Cc1nnn(Cc2cc(C(F)(F)F)ccc2/C=C/C(=O)N2CCC(C(F)(F)F)CC2)n1	7.89	41		
Cc1nnn(Cc2cc(Cl)ccc2/C=C/C(=O)N2CCN(Cc3coc(C)n3)CC2)n1		72	4.64	Tmax [3]: 0.4 h; bioavailability [4]: 52%; solubility thermodynamic [5]: > 1000 µM; Cmax [6]: 2.8 µM; clearance [8]: 45 mL/min/kg; AUC [9]: 4.4 µM·h; half-life [10]: 0.8 h; Vd [11]: 1.6 L/kg
Cc1nnn(Cc2cc(Cl)ccc2/C=C/C(=O)N2CCC(Cc3nnc(C)o3)CC2)n1		89	< 4.52	
Cc1noc(Cc2cc(Cl)ccc2/C=C/C(=O)N2CCN(Cc3ccc(F)cc3)C[C@H]2C)n1	7.74	580		
Cc1nnn(Cc2cc(Cl)ccc2/C=C/C(=O)N2CCN(C(=O)c3ccc(F)cc3)CC2)n1	5.80	71		
Cc1nnn(Cc2cc(Cl)ccc2/C=C/C(=O)N2CCN(Cc3cnn(C)c3)CC2)n1		49	4.82	
Cc1nnn(Cc2cc(Cl)ccc2/C=C/C(=O)N2CCC(Cc3ncc(C)o3)CC2)n1		570		
Cc1nnn(Cc2cc(Cl)ccc2/C=C/C(=O)N2CCN(Cc3ccc(F)cc3)C[C@H]2C)n1	8.02	510		microsomal CLint [12]: 230 µL/min/mg
C[C@@H]1CN(Cc2ccc(F)cc2)CCN1C(=O)/C=C/c1ccc(Cl)cc1Cn1ncnn1	7.80	730		
Cc1nnn(Cc2cc(C(F)(F)F)ccc2/C=C/C(=O)N2CCC(c3nnc(C)o3)CC2)n1		19	4.64	Tmax [3]: 1.3 h; pIC50 (Autotaxin [13]): 7.92; bioavailability [4]: 94%; Cmax [6]: 5.1 µM; clearance [8]: 15 mL/min/kg; AUC [9]: 23.2 µM·h; half-life [10]: 3.6 h; inhibition (Rattus norvegicus): Dose-dependent effect; pIC50 [14]: 8.30; Vd [11]: 1.8 L/kg; microsomal CLint [12]: 13 µL/min/mg
Cc1cc(CN2CCN(C(=O)/C=C/c3ccc(Cl)cc3Cn3nnc(C)n3)CC2)on1		88	4.92	
Cc1cnn(Cc2cc(Cl)ccc2/C=C/C(=O)N2CCN(Cc3ccc(F)cc3)C[C@H]2C)n1	8.23	690		
Cc1nnn(Cc2cc(C(F)(F)F)ccc2/C=C/C(=O)N2CCC(Cl)CC2)n1	7.22	89	< 4.52	Fa [15]: 89%
COc1ccc(CN2CCN(C(=O)/C=C/c3ccc(Cl)cc3Cn3nnc(C)n3)CC2)nc1		190	5.72	
Cc1noc(C2CCN(C(=O)/C=C/c3ccc(C(F)(F)F)cc3Cn3nnc(C)n3)CC2)n1		36		
Cc1nnn(Cc2cc(C(F)(F)F)ccc2/C=C/C(=O)N2CCC(C#N)CC2)n1	6.10	28	4.60	Fa [15]: 27%
Cc1nnn(Cc2cc(Cl)ccc2/C=C/C(=O)N2CCNC[C@H]2C)n1	7.02	84		
Cc1nnn(Cc2cc(Cl)ccc2CCC(=O)N2CCN(Cc3ccc(F)cc3)C[C@H]2C)n1	7.72	> 920		
Cc1ncn(C2CCN(C(=O)/C=C/c3ccc(C(F)(F)F)cc3Cn3nnc(C)n3)CC2)n1	7.80	15	4.60	microsomal CLint [12]: 16 µL/min/mg
Cc1nnn(Cc2cc(Cl)ccc2/C=C/C(=O)N2CCN(Cc3ccc(F)cc3)CC2)n1	7.70	470		
Cc1nnn(Cc2cc(C(F)(F)F)ccc2/C=C/C(=O)N2CCC(c3noc(C)n3)CC2)n1		35	< 4.52	microsomal CLint [12]: 19 µL/min/mg
